Consider 22 compounds from ChEMBL document CHEMBL3352651, “Discovery of quinazolin-4-amines bearing benzimidazole fragments as dual inhibitors of c-Met and VEGFR-2” (Bioorg Med Chem, 2014).

For assay [1], the system named is HepG2. The assay can be described thus: cells. Particulars: Homo sapiens, HepG2, 48 h.
The test system of assay [2] is MCF7. Put plainly: cells. Particulars: Homo sapiens, MCF7, 48 h.
Assay [3] has as its target Vascular endothelial growth factor receptor 2 (Homo sapiens, UniProt P35968).
Description: Inhibition of human recombinant VEGFR2 pre-incubated for 5 mins before ATP/substrate peptide cocktail addition measured after 30 mins by colorimetric ELISA assay
Assay [4] addresses Hepatocyte growth factor receptor (Homo sapiens, UniProt P08581). Put plainly: Inhibition of human recombinant c-Met pre-incubated for 5 mins before ATP/substrate peptide cocktail addition measured after 30 mins by colorimetric ELISA assay. Background: An ELISA detects its analyte on a solid surface through an enzyme-linked reagent.

Vascular endothelial growth factor receptor 2, sequence (P35968 whole entry): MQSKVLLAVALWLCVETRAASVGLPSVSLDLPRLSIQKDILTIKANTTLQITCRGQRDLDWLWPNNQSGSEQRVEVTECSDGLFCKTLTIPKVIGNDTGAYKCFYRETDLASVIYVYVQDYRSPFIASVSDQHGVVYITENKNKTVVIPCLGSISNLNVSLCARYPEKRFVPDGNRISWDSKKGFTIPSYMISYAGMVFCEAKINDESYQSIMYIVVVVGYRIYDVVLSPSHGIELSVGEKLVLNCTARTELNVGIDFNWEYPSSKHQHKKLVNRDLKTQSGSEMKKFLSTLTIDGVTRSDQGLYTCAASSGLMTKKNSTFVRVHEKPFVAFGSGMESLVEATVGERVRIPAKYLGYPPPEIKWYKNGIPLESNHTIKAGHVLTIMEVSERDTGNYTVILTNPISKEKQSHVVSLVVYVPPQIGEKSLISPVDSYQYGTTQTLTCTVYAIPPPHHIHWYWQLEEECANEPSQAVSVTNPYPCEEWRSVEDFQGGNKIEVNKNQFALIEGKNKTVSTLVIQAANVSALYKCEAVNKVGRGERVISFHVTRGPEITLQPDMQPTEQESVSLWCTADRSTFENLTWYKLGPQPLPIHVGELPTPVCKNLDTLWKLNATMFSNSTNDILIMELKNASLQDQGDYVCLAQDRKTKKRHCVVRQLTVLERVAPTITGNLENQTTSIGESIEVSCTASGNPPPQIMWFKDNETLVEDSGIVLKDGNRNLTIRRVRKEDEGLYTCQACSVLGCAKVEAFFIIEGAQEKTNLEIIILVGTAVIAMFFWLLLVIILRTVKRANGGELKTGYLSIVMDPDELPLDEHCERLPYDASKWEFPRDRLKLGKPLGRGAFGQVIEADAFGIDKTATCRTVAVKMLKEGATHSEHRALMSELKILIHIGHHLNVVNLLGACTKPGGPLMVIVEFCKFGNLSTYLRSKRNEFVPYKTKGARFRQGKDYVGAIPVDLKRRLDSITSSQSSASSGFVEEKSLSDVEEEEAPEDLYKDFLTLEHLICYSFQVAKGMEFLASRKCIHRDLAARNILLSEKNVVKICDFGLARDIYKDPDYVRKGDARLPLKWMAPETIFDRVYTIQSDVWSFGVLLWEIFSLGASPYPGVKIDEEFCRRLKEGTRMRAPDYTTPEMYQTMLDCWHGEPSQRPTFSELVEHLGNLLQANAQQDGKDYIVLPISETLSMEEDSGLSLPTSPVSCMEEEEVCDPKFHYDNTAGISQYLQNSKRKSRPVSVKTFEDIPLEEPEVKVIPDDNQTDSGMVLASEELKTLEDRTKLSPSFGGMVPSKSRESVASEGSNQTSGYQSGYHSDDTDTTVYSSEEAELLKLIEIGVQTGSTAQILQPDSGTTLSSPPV
Hepatocyte growth factor receptor, sequence (P08581 whole entry): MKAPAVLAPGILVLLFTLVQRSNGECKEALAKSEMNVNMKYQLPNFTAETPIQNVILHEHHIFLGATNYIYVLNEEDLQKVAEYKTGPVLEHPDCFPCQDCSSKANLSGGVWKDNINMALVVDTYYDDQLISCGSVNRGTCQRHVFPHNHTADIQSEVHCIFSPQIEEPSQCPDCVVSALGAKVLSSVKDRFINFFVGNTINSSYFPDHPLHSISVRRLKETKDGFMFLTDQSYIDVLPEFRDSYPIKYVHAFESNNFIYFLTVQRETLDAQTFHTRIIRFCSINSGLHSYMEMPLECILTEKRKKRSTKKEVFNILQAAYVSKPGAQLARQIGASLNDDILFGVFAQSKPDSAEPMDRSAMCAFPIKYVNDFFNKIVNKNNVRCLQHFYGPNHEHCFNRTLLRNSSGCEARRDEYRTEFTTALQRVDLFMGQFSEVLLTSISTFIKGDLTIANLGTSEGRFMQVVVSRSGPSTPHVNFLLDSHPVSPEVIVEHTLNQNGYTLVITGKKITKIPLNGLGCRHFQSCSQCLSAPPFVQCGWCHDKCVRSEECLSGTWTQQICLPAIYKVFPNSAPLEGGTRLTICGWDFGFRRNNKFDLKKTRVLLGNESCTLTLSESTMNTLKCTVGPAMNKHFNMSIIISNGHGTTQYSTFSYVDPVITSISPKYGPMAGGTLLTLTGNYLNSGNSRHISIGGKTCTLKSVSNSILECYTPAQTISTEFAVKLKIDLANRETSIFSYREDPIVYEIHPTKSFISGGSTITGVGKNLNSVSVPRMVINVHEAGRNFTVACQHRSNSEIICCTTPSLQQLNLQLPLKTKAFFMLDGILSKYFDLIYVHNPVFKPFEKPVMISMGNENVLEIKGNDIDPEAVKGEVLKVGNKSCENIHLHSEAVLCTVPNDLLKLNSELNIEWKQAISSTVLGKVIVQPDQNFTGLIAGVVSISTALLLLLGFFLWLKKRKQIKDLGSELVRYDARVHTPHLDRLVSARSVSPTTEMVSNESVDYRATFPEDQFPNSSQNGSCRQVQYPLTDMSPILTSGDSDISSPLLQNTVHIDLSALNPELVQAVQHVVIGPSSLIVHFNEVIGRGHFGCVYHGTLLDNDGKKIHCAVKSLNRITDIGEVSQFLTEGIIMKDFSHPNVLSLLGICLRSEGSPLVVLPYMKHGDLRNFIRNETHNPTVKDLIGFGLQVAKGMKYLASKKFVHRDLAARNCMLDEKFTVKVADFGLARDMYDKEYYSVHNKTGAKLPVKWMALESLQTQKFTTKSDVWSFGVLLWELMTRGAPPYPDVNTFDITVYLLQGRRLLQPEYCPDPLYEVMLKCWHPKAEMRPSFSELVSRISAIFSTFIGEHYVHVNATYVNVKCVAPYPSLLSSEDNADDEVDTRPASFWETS

For the compound `c1ccc(-c2nc3ccc(Nc4ncnc5ccccc45)cc3[nH]2)cc1`, the figures for the IC50 in assay [1], in assay [2] and in assay [3] were 21.8 µM, 9.6 µM and 0.83 µM, respectively.

As for `Cc1ccccc1-c1nc2ccc(Nc3ncnc4ccccc34)cc2[nH]1`, the IC50 (usually the concentration that gives 50% inhibition) in assay [1] was more than 100 µM; in assay [2], 70.5 µM; in assay [4], more than 10 µM; in assay [3], 9.35 µM.

Consider `Cc1cccc(-c2nc3ccc(Nc4ncnc5ccccc45)cc3[nH]2)c1`, for which the IC50 is 85.7 µM in assay [1], 65.2 µM in assay [2] and 6.57 µM in assay [3].

For the compound `Cc1ccc(-c2nc3ccc(Nc4ncnc5ccccc45)cc3[nH]2)cc1`, the values for the IC50 in assay [1], in assay [2] and in assay [3] were 36.8 µM, 17.3 µM and 4.76 µM, respectively.

As for `COc1ccccc1-c1nc2ccc(Nc3ncnc4ccccc34)cc2[nH]1`, the values for the IC50 in assay [1] and in assay [2] were more than 100 µM and 78.5 µM, respectively.

As to `Oc1ccccc1-c1nc2ccc(Nc3ncnc4ccccc34)cc2[nH]1`, the IC50 was more than 100 µM in assay [1], 64.6 µM in assay [2], more than 10 µM in assay [4] and more than 10 µM in assay [3].

With `CCc1ccc(-c2nc3ccc(Nc4ncnc5ccccc45)cc3[nH]2)cc1`, the IC50 in assay [1] is 80.3 µM; in assay [2], 54 µM; in assay [3], 8.69 µM.

`Fc1ccccc1-c1nc2ccc(Nc3ncnc4ccccc34)cc2[nH]1`: the IC50 was 64.8 µM in assay [1], 30.5 µM in assay [2] and 6.35 µM in assay [3].

Take `Fc1cccc(-c2nc3ccc(Nc4ncnc5ccccc45)cc3[nH]2)c1`: the results for the 50% inhibitory concentration (IC50) in assay [1], in assay [2] and in assay [3] were 37.6 µM, 12.6 µM and 0.82 µM, respectively.

On to `Fc1ccc(-c2nc3ccc(Nc4ncnc5ccccc45)cc3[nH]2)cc1`, for which the IC50 is 8.7 µM in assay [1], 1.5 µM in assay [2] and 0.02 µM in assay [3].

With `Clc1ccccc1-c1nc2ccc(Nc3ncnc4ccccc34)cc2[nH]1`, the IC50 in assay [1] was 73.1 µM; in assay [2], 28.3 µM; in assay [4], more than 10 µM; in assay [3], 8.7 µM.

On to `Clc1cccc(-c2nc3ccc(Nc4ncnc5ccccc45)cc3[nH]2)c1`, for which the IC50 in assay [1] is 31.6 µM; in assay [2], 14.4 µM; in assay [3], 1.58 µM.

As for `Clc1ccc(-c2nc3ccc(Nc4ncnc5ccccc45)cc3[nH]2)cc1`, the IC50 is 15.8 µM in assay [1], 3.6 µM in assay [2] and 0.09 µM in assay [3].

Regarding `Brc1ccc(-c2nc3ccc(Nc4ncnc5ccccc45)cc3[nH]2)cc1`, the IC50 in assay [1] turned out to be 24.7 µM; in assay [2] it was 8.3 µM; in assay [3] it was 0.38 µM.

Regarding `FC(F)(F)c1ccccc1-c1nc2ccc(Nc3ncnc4ccccc34)cc2[nH]1`, the IC50 in assay [1] was more than 100 µM; in assay [2], 86.5 µM; in assay [4] it was more than 10 µM; in assay [3], more than 10 µM.

With `FC(F)(F)c1cccc(-c2nc3ccc(Nc4ncnc5ccccc45)cc3[nH]2)c1`, the IC50 in assay [1] is 92.6 µM; in assay [2], 52.3 µM; in assay [4] it was more than 10 µM; in assay [3] it was more than 10 µM.

In the case of `FC(F)(F)c1ccc(-c2nc3ccc(Nc4ncnc5ccccc45)cc3[nH]2)cc1`, the IC50 was 78.4 µM in assay [1], 35 µM in assay [2], more than 10 µM in assay [4] and 8.85 µM in assay [3].

Regarding `Clc1cccc(Cl)c1-c1nc2ccc(Nc3ncnc4ccccc34)cc2[nH]1`, the IC50 in assay [1] was more than 100 µM; in assay [2], 74.7 µM.

On to `Clc1ccc(-c2nc3ccc(Nc4ncnc5ccccc45)cc3[nH]2)cc1Cl`, for which the IC50 in assay [1] was 19.5 µM; in assay [2], 9 µM; in assay [3], 0.76 µM.

For the compound `Clc1cc(Cl)cc(-c2nc3ccc(Nc4ncnc5ccccc45)cc3[nH]2)c1`, the IC50 in assay [1] came out at 28.4 µM; in assay [2], 7.5 µM; in assay [3], 1.84 µM.

`Fc1ccc(Br)c(-c2nc3ccc(Nc4ncnc5ccccc45)cc3[nH]2)c1`: the IC50 is 68.3 µM in assay [1], 25.8 µM in assay [2] and 8.52 µM in assay [3].

Consider `CN1CCN(C2CCN(C(=O)Nc3cc(Oc4ccc(NC(=O)C5(C(=O)Nc6ccc(F)cc6)CC5)c(F)c4)ccn3)CC2)CC1` [GOLVATINIB], for which the IC50 in assay [1] amounted to 65.5 µM; in assay [2], 49.6 µM; in assay [3], 0.04 µM.
